For series [1], the system named is HIV-1IIIB in CEM-SS cells. Kind of series: HIV-1 antiviral assay (CPE reduction, MTS). To be noted: peptide 10 micrograms per ml, 6 days post-infection. In kind it is cell-based.
For a further series, the system named is CEM-SS cells. As to the kind of experiment: Cytotoxicity in HIV-1 assay (MTS cell viability). The note with it: peptide 10 micrograms per ml.
For the next series, the system named is HepG2-2.2.15 cells. As to the kind of experiment: Cytotoxicity in HBV assay (dye uptake cell viability). Type of series: cell-based. The note with it: test peptide 10 micrograms per ml, % cell control.
For series [2], the system named is MRC-5 cells (human embryonal lung fibroblasts). To be noted: 6 days.
The subject of another series is Human A549 cells. As to the kind of experiment: Propidium iodide cell cycle assay. Type of series: cell-based. To be noted: 24 hours, test peptide 10 micrograms per ml.
The test system of series [3] is hepatitis B virus (HBV) ayw strain in HepG2-2.2.15 cells. As to the kind of experiment: HBV replication assay (secreted HBV DNA, TaqMan PCR). Type of series: cell-based. The note with it: test peptide 10 micrograms per ml; six days; HBV DNA in supernatant. Here is the method: HepG2-2.2.15 is a stable cell line containing the hepatitis B virus (HBV) ayw strain genome (ATCC Cat. No. CRL-11997). Antiviral compounds blocking any late step of viral replication such as transcription, translation, pregenome encapsidation, reverse transcription, particle assembly and release can be identified and characterized using this cell line.
HepG2-2.2.15 cells were plated in 96-well microtiter plates. After 16-24 hours the confluent monolayer of HepG2-2.2.15 cells was washed and the medium was replaced with complete medium containing test peptide—10 micrograms per ml—in duplicate. […] Three days later the culture medium was replaced with fresh medium containing the peptide. Six days following the initial administration of the peptide, the cell culture supernatants was collected, treated with pronase and DNAse and then used in a real-time quantitative TaqMan PCR assay. The PCR-amplified HBV DNA was detected in real-time by monitoring increases in fluorescence signals that result from the exonucleolytic degradation of a quenched fluorescence probe molecule that hybridizes to the amplified HBV DNA. For each PCR amplification, a standard curve was simultaneously generated using dilutions of purified HBV DNA. Antiviral activity was calculated from the reduction in HBV DNA levels (% virus control). […]
On the technique in general: In qPCR the cycle at which signal appears reflects the starting amount.

The next series relates to Pseudomonas aeruginosa. In kind it is cell-based. To be noted: 5 micrograms per ml.
The subject of series [4] is HCMV strain AD169 in MRC-5 cells. As to the kind of experiment: HCMV plaque reduction assay. To be noted: HCMV AD169 in MRC-5 cells; peptide 10 micrograms per ml; 7-10 days. In general terms: Plaques are areas of infected cells; plaque reduction assays count them against a control.
Another series concerns HUVEC. Kind of series: Endothelial tube formation assay. Type of series: cell-based, human. The note with it: test peptide 10 micrograms per ml, 20 hours. An excerpt: Positive control was vehicle only.
A short description of series [5]: in vitro. The note with it: human, MRC-5 cells (human embryonal lung fibroblasts).
Series [6] concerns Human Peripheral Blood Mononuclear Cells (PBMC), B cell proliferation. As to the kind of experiment: B cell proliferation assay (SAC plus IL-2, 3H-thymidine). In kind it is cell-based. To be noted: test peptide 10 micrograms per ml, 3 days plus 12 hours 3H-thymidine.
The next series relates to MRSA. The note with it: 5 micrograms per ml.
In series [7] the test system is Human Peripheral Blood Mononuclear Cells (PBMC), T cell proliferation. As to the kind of experiment: T cell proliferation assay (PHA, 3H-thymidine). In kind it is cell-based. To be noted: test peptide 10 micrograms per ml, 3 days plus 12 hours 3H-thymidine.
Series [8] concerns spleen cells of Ovalbumin-immunized Balb/c mice. Kind of series: Th1/Th2 cytokine profiling assay. In kind it is cell-based, mouse. To be noted: test peptide 10 micrograms per ml; Ovalbumin restimulation; 72 hours.
The test system of series [9] is TNF alpha production in PBMC-derived macrophages. Kind of series: TNF alpha production assay (LPS-stimulated macrophages, ELISA). In kind it is cell-based, human. To be noted: test peptide 10 micrograms per ml, lipopolysaccharide 200 ng/ml, overnight. The text has this:
Not stimulated macrophages served as negative background control.

The test system of the next series is Streptococcus pneumoniae. In kind it is cell-based. The note with it: 5 micrograms per ml.
Series [10] in a line: in vitro. The note with it: human, CEM-SS cells.
A short description of series [11]: Cytotoxicity in HBV assay (dye uptake cell viability). Type of series: cell-based. To be noted: human, HepG2-2.2.15 cells (stable line containing HBV ayw genome), test peptide 10 micrograms per ml, % cell control.
The next series relates to RAW 264.7 cells. As to the kind of experiment: Phagocytosis assay (Fluorescein-labeled Escherichia coli). Type of series: cell-based, mouse. To be noted: test peptide 10 micrograms per ml.
In series [12] the test system is Primary Human endothelial cells (HUVEC). As to the kind of experiment: Endothelial cell migration assay. The note with it: test peptide 10 micrograms per ml, 22 hours. Type of series: cell-based.

Each structure is given as a SMILES string.

From patent US20100204140A1, “USE OF A PEPTIDE AS A THERAPEUTIC AGENT” (priority 2007, published 2010) come the findings set out here.

For orientation: % inhibition means the percentage by which the read-out fell short of the control. The viability is the share of living cells, or the viability signal relative to a control. The low end stands for more harm to the cells, the high end for less harm to the cells.

In the case of `Cc1cn([C@H]2C[C@H](N=[N+]=[N-])[C@@H](CO)O2)c(=O)[nH]c1=O` [AZT, reference compound], the “% CPE reduction in HIV-1 infected CEM-SS cells” value in series [1] was determined as 99%. The “% Cell viability” value in the series with CEM-SS cells is listed as 97%.

In the case of `Nc1ccn([C@@H]2CS[C@H](CO)O2)c(=O)n1` [Compound 3TC, reference compound], in the series with HepG2-2.2.15 cells, the “% Cell viability” value worked out at 95.8%.

Turning to `Nc1nc(O)c2ncn(COC(CO)CO)c2n1` [Ganciclovir], the “% Cell viability” value in series [2] was determined as 100%.

For `CSCC[C@H](NC(=O)[C@H](CC(C)C)NC(=O)CNC(=O)[C@@H](NC(=O)[C@H](Cc1ccccc1)NC(=O)[C@H](Cc1ccccc1)NC(=O)[C@H](CC(=O)O)NC(=O)[C@H](Cc1c[nH]cn1)NC(=O)[C@H](CCSC)NC(=O)[C@@H](N)CC(=O)O)C(C)C)C(N)=O` [Neurokinin B], in the series with Human A549 cells, the “Cell cycle analysis G0/G1” value came out at 53.0, the “Cell cycle analysis G2/M” value was found to be 14.8 and the “Cell cycle analysis S” value is recorded as 32.2. Besides, the “% inhibition of HBV replication in HEP G2 cells” value in series [3] is given as 78.5%. Moreover, the “% CPE reduction in HIV-1 infected CEM-SS cells” value in series [1] is recorded as 0.0%. In addition, the “% inhibition” value in the series with Pseudomonas aeruginosa was 0.0%. In series [4], the “% plaque reduction” value stood at 3.2%. Further, the “% inhibition of tube formation” value with HUVEC was 14%. Moreover, in the series “in vitro [5]”, the viability at 144 h came out at 100%. Moreover, the “% of SAC/IL2 induced control” value in series [6] was found to be 115.1%. The “% inhibition” value in the series with MRSA turned out to be 0.0%. Besides, in [7], the “% of PHA induced control” value is 88.1%. In addition, in [8], the “IFNγ spleen cells; TH1 response (% of control)” value is on record as 126.8 % of control, the “IL-2 spleen cells (% of control)” value is on record as 198.0 % of control, the “IL-4 spleen cells; TH2 response (% of control)” value is on record as 103.5 % of control and the “IL-5 spleen cells; TH2 response (% of control)” value is 99.2 % of control. The “TNF-a spleen cells; TH1 response (% of control)” value in [8] is 151.0 % of control. Also, the “% of LPS induction” value in series [9] is 115.9%. The “% inhibition” value with Streptococcus pneumoniae came to 0.0%. In the series “in vitro [10]”, the viability at 10 micrograms per ml amounted to 98.5%. This compound yielded a viability at 144 h, 10 micrograms per ml in series [11] of 96.1%. For the same compound, in the series on RAW 264.7 cells, the “% of control phagocytosis” value is given as 105.9%. For the same compound, the “% inhibition of migration” value in series [12] is −2%.
